# Measurements: patent US7511144B2, “Reverse hydroxamic acid derivatives” (Kaken Pharmaceutical Co., Ltd., priority 2001, dated 2009)
# Columns and labels:
# Type in all cases: biochemical
# [1] = target: T1, TACE (Homo sapiens, UniProt P78536); experiment: TACE inhibition experiment (in vitro)
# T1 construct: made in house; host or cells: mammalian cells or insect cells
# [2] = target: T2, Human MMP8 (Homo sapiens, UniProt P22894); experiment: MMP8 inhibition experiment; conditions: concentration required for 50% inhibition of enzyme activity; read-out: IC50 value MMP-8
# T2 construct: purchased Calbiochem 444229
# Experimental: MMP inhibition experiment may be carried out using a fluorescent synthetic substrate according to, for example, the methods of Bickett et al. (D. Mark Bickett et al., Anal. Biochem., 1993, 212, 58-64) and Nagase et al. (H. Nagase et al., J. Biol. Chem., 1994, 269, 20952-20957). The methods of inhibition experiments carried out for various MMPs are described below.
# Human MMP8 (Calbiochem #444229) in amount of 90 μL (30 ng) was activated by mixing with 10 μL of 10 mM APMA, followed by reaction for 1 hour at 37° C. This enzyme solution in amount of 10 μL was diluted to 90 μL with the assay buffer A, which was added to 90 μL of […] fluorescent substrate (MOCAc-Pro-Leu-Gly-Leu-A2pr(Dnp)-Ala-Arg-NH2, Peptide Institute, Inc., #3163-v) prepared in the assay buffer B, followed by reaction for 5 hours at 37° C.
# [3] = target: T3, Human MMP1 (Homo sapiens, UniProt P03956); experiment: MMP1 inhibition experiment; conditions: read-out: IC50 value MMP-1
# T3 construct: purchased Calbiochem 444208
# T3 sequence (P03956 100-469): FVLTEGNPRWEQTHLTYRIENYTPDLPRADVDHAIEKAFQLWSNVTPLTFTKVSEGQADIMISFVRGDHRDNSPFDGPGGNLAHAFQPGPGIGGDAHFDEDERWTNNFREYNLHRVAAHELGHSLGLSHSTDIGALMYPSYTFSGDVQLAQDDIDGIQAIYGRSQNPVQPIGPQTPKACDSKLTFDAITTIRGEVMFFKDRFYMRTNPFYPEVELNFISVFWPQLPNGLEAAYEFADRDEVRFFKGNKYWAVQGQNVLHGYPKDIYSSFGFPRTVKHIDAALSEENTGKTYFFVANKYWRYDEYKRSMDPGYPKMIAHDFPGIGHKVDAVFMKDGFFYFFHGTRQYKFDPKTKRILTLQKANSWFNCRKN
# [4] = target: T4, Human MMP9 (Homo sapiens, UniProt P14780); experiment: MMP9 inhibition experiment; conditions: read-out: IC50 value MMP-9
# T4 construct: purchased Calbiochem 444231
# [5] = target: T5, Human MMP14 (Homo sapiens, UniProt P50281); experiment: MMP14 inhibition experiment; conditions: concentration required for 50% inhibition of enzyme activity; read-out: IC50 value MMP-14
# T5 construct: purchased Biogenesis or Calbiochem 5980-1461 or 475935
# How it was run: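 Fluorescence assay: substrate Dnp-Pro-Cha-Gly-Cys(Me)-His-Ala-Lys(Nma)-NH2 (20 μM before equal-volume mixing) incubated at 37° C for 5 hours with 4 ng human MMP14.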
# [6] = target: T6, Human MMP3 (Homo sapiens, UniProt P08254); experiment: MMP3 inhibition experiment; conditions: concentration required for 50% inhibition of enzyme activity; read-out: IC50 value MMP-3
# T6 construct: purchased Calbiochem 444217
# How it was run: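 Recombinant human MMP3 (5 ng) mixed with fluorogenic peptide NFF-3 (20 μM stock solution) and incubated 5 hours at 37° C; cleavage followed by fluorescence of the quenched substrate.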
# [7] = target: T7, Human MMP2 (Homo sapiens, UniProt P08253); experiment: MMP2 inhibition experiment; conditions: concentration required for 50% inhibition of enzyme activity; read-out: IC50 value MMP-2
# T7 construct: purchased Calbiochem 444213
# T7 sequence (P08253 110-660): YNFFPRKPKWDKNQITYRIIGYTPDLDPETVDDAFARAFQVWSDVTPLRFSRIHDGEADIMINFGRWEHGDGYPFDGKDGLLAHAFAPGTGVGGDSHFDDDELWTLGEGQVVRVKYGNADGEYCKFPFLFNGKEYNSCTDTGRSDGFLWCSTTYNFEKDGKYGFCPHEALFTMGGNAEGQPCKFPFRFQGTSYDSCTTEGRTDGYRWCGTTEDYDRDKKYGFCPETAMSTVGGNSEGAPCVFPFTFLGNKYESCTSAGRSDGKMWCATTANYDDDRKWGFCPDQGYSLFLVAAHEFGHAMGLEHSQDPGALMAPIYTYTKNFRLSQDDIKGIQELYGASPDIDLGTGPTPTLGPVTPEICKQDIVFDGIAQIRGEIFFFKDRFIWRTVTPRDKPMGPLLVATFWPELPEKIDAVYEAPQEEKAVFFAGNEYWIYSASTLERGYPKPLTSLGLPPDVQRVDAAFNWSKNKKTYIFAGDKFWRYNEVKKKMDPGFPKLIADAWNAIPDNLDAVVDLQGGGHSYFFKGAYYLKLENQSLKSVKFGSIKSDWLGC
# [8] = target: T8, Human MMP13 (Homo sapiens, UniProt P45452); experiment: MMP13 inhibition experiment; conditions: concentration required for 50% inhibition of enzyme activity; read-out: IC50 value MMP-13
# T8 construct: purchased Chemicon CC068
# [9] = target: T9, Human MMP17 (Homo sapiens, UniProt Q9ULZ9); experiment: MMP17 inhibition test; conditions: concentration required for 50% inhibition of enzyme activity; read-out: IC50 value MMP-17
# T9 construct: purchased Calbiochem 475940
# T9 sequence (Q9ULZ9 126-300 limits assumed): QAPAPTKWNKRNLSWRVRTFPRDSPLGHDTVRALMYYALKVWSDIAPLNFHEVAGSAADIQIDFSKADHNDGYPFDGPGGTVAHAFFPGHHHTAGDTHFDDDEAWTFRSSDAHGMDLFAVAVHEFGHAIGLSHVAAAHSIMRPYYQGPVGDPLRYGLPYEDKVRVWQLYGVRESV
# T6 sequence (P08254 100-272 limits assumed): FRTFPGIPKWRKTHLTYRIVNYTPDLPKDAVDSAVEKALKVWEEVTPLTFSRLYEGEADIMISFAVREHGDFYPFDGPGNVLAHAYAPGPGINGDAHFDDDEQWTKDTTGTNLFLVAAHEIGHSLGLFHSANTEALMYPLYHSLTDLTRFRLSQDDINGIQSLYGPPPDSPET
# T4 sequence (P14780 107-707 limits assumed): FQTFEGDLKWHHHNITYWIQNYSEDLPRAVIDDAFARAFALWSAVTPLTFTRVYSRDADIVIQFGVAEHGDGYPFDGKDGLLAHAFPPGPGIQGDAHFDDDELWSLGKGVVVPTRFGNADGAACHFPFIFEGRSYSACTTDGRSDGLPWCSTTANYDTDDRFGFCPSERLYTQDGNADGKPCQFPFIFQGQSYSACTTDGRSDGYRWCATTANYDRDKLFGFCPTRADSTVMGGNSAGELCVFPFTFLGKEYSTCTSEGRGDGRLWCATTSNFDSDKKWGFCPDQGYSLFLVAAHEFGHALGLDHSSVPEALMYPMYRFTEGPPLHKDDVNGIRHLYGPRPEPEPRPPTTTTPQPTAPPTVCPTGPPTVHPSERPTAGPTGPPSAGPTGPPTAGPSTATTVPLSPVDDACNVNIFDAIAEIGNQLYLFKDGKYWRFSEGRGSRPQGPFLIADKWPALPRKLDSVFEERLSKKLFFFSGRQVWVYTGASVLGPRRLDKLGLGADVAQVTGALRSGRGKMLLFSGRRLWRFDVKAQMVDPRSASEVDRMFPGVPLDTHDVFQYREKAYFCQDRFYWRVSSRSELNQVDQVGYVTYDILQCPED
# T1 sequence (P78536 215-824): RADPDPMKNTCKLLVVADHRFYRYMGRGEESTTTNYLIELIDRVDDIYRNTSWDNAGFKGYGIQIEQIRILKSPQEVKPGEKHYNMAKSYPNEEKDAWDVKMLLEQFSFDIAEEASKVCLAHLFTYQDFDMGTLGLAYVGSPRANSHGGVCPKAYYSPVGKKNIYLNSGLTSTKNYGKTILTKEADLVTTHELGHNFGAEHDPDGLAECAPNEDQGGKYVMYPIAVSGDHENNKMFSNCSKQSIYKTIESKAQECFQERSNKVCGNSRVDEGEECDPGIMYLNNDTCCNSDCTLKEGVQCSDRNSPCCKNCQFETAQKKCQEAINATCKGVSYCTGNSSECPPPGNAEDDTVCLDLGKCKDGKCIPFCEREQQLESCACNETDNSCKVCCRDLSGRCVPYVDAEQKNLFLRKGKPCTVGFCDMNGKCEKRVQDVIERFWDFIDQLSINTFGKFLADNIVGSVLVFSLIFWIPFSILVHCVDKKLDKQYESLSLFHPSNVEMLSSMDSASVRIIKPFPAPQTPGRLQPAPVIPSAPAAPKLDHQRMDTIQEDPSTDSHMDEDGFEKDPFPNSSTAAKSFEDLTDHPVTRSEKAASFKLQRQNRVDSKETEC
# T2 sequence (P22894 101-467): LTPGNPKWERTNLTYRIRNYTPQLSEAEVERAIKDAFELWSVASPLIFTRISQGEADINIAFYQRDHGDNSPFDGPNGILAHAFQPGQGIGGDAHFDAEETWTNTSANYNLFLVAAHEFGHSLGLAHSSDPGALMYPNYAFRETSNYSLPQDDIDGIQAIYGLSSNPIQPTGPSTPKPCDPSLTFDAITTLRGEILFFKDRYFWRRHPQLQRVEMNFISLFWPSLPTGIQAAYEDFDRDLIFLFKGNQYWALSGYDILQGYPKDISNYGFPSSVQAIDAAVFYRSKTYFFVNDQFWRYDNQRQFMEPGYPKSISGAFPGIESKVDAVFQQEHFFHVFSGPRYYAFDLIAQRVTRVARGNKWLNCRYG
Structure (SMILES),IC50 [1] [µM],IC50 [2] [µM],IC50 [3] [µM],IC50 [4] [µM],IC50 [5] [µM],IC50 [6] [µM],IC50 [7] [µM],IC50 [8] [µM],IC50 [9] [µM]
Cc1cccc(CCC(CS(=O)(=O)c2ccc(OCc3cc(C)nc4ccccc34)cc2)N(O)C=O)c1 (stereo not drawn) [Example I-39],0.21,> 100,73,36,43,24,30,26,25
Cc1cc(COc2ccc(S(=O)(=O)CC(N(O)C=O)C3(C)CCC4(CC3)OCCO4)cc2)c2ccccc2n1 (stereo not drawn) [Example I-47],0.03,15,> 100,> 100,60,0.6,22,18,0.4
Cc1cc(COc2ccc(S(=O)(=O)CC(CC3CCN(C(=O)c4ccccc4)CC3)N(O)C=O)cc2)c2ccccc2n1 (stereo not drawn) [Example I-50],0.013,5.8,60,31,30,0.2,1.4,3,0.2
CCC(CC)C(=O)N1CCC(CC(CS(=O)(=O)c2ccc(OCc3cc(C)nc4ccccc34)cc2)N(O)C=O)CC1 (stereo not drawn) [Example I-51],0.01,7.6,60,37,40,0.35,3.2,5.8,0.4
Cc1cc(COc2ccc(S(=O)(=O)CC(CN3CCN(S(C)(=O)=O)CC3)N(O)C=O)cc2)c2ccccc2n1 (stereo not drawn) [Example I-52],0.012,42,> 100,> 100,> 100,1,22,40,1.6
COCC(=O)N1CCN(CC(CS(=O)(=O)c2ccc(OCc3cc(C)nc4ccccc34)cc2)N(O)C=O)CC1 (stereo not drawn) [Example I-53],0.01,25,> 100,> 100,> 100,0.6,13,40,0.4
COc1ccc(C(=O)N2CCN(CC(CS(=O)(=O)c3ccc(OCc4cc(C)nc5ccccc45)cc3)N(O)C=O)CC2)cc1 (stereo not drawn) [Example I-54],0.008,42,70,31,43,1.2,12,23,0.85
Cc1cc(COc2ccc(S(=O)(=O)CC(CCc3cccnc3)N(O)C=O)cc2)c2ccccc2n1 (stereo not drawn) [Example I-56],0.004,7.2,70,55,42,1,3.1,6.4,1.2
Cc1ccc(C(C)(CS(=O)(=O)c2ccc(OCc3cc(C)nc4ccccc34)cc2)N(O)C=O)cc1 (stereo not drawn) [Example I-57],0.012,> 100,42,60,33,6,> 100,33,4.6
COc1ccc(CN2C(=O)SCC2C(CS(=O)(=O)c2ccc(OCc3cc(C)nc4ccccc34)cc2)N(O)C=O)cc1 (stereo not drawn) [Example I-59],0.01,58,54,> 100,60,5.6,80,35,2.6

# More lines, now with the values ahead:
IC50 [1] [µM],IC50 [2] [µM],IC50 [3] [µM],IC50 [4] [µM],IC50 [5] [µM],IC50 [6] [µM],IC50 [7] [µM],IC50 [8] [µM],IC50 [9] [µM],Structure (SMILES)
0.0031,50,> 100,> 100,> 100,4.8,41,50,3.7,CC(=O)N1CCC(=CC(CS(=O)(=O)c2ccc(OCc3cc(C)nc4ccccc34)cc2)N(O)C=O)CC1 (stereo not drawn) [Example I-41]
0.0029,61,70,52,38,2.2,18,20,2.3,CCC(CC)C(=O)N1CCC(=CC(CS(=O)(=O)c2ccc(OCc3cc(C)nc4ccccc34)cc2)N(O)C=O)CC1 (stereo not drawn) [Example I-42]
0.0031,52,> 100,> 100,> 100,11,50,65,4.5,Cc1cc(COc2ccc(S(=O)(=O)CC(C=C3CCN(C=O)CC3)N(O)C=O)cc2)c2ccccc2n1 (stereo not drawn) [Example I-43]
0.0078,42,> 100,> 100,60,3,6.5,20,1.1,CCC(CC)CN1CCC(=CC(CS(=O)(=O)c2ccc(OCc3cc(C)nc4ccccc34)cc2)N(O)C=O)CC1 (stereo not drawn) [Example I-44]
0.005,5,85,40,9,0.26,1,2,0.27,Cc1cc(COc2ccc(S(=O)(=O)CC(C=C3CCN(Cc4ccccc4)CC3)N(O)C=O)cc2)c2ccccc2n1 (stereo not drawn) [Example I-45]
0.019,18,> 100,> 100,> 100,2.8,70,50,1,Cc1cc(COc2ccc(S(=O)(=O)CC(N(O)C=O)C3(C)CCC(=O)CC3)cc2)c2ccccc2n1 (stereo not drawn) [Example I-48]
0.013,9,> 100,> 100,90,2,24,30,0.61,Cc1cc(COc2ccc(S(=O)(=O)CC(C3CCOCC3)N(O)C=O)cc2)c2ccccc2n1 (stereo not drawn) [Example I-49]
0.0031,11,> 100,> 100,> 100,1.9,21,27,0.58,Cc1cc(COc2ccc(S(=O)(=O)CC(C3CSC(=O)N3C)N(O)C=O)cc2)c2ccccc2n1 (stereo not drawn) [Example I-58]
